In brackets after ≈: the same amount, converted by molar mass.

Data set [1] is described as follows: Determination of water solubility (equilibrium stirring method). It is filed as physicochemical. The following applies: 50 mM phosphate buffer pH 6.5, room temperature (20 C); for solubility at 2 h: aqueous buffer, thermodynamic from solid, read-out: Water solubility (LySA PH 6.5). Here is the method: The vessels were sealed, and the contents were sonicated at room temperature (20° C.) for ten minutes, and then stirred with a stirrer for two hours. After reaching solution equilibrium, the solution was separated with a membrane filter, and the solute concentration was determined using HPLC.

Data set [2] is described as follows: Determination of stability against mouse liver microsomes. It is filed as in vitro ADME. The following applies: mouse liver microsomes 1 mg protein/mL, 2 mM NADPH, pH 7.4, 37 C; read-out: Stability against mouse liver microsome NADPH+ T1/2. Here is the method:
The enzyme reaction was quenched with three volumes of acetonitrile, and the reaction mixture was centrifuged at 1,500 rpm for ten minutes to provide a supernatant as a sample to be measured. Stability against mouse liver microsomes was measured using HPLC/MS to determine the compounds in the sample.
A general note: Liver microsomes are a subcellular fraction often used to study metabolism.

The subject of data set [3] is Human colon cancer cell line HT-29. Description: Determination of the activity of inhibiting cell proliferation (Cell Counting Kit-8). The note with it: HT-29, 96 h, HT29, 2,000 cells/well, incubated four days, read-out: Cell proliferation inhibitory activity (HT29) IC50. It is filed as cell-based. The procedure:
Human colon cancer cell line HT-29, obtained from American Type Culture Collection (VA, USA), and human non-small cell lung cancer cell line QG56, obtained from Immuno-Biological Laboratories Co., Ltd., were plated at 2,000 cells/well in a 96-well culture plate, and incubated for four days after addition of a MEK inhibitor of a given concentration.
For orientation: Tetrazolium dyes change colour on reduction, which living cells bring about.

Another data set addresses MEK (Homo sapiens, UniProt Q02750). Description: Determination of MEK inhibitory activities (Raf-1 kinase cascade assay, MBP phosphorylation, 33P-ATP).
Data set [4] is described as follows: Determination of stability against human liver microsomes. It is filed as in vitro ADME. The following applies: human liver microsomes 1 mg protein/mL, 2 mM NADPH, pH 7.4, 37 C; read-out: Stability against human liver microsome NADPH+ T1/2. Here is the method: The enzyme reaction was quenched with three volumes of acetonitrile, and the reaction mixture was centrifuged at 1,500 rpm for ten minutes to provide a supernatant as a sample to be measured. Stability against human liver microsomes was measured using HPLC/MS to determine the compounds in the sample.

MEK, sequence (Q02750 whole entry): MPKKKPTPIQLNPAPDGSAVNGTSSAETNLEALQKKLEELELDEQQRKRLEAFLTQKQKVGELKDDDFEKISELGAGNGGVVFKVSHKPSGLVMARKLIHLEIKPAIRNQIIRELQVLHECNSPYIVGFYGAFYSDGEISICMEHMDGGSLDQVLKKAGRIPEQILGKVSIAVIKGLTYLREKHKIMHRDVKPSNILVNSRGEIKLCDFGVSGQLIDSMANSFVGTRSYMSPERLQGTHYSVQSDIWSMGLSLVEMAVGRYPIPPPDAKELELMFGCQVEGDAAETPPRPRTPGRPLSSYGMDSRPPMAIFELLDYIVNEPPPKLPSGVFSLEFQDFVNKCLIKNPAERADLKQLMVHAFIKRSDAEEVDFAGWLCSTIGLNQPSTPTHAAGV
Source text for MEK: The radioisotope used was [γ^33P]-ATP (Amersham Biosciences, K.K.).

`CC(C)(O)CO/N=C/c1cc(C(=O)NOCCO)c(Nc2ccc(I)cc2F)c(F)c1F` [Compound 12, (E)-3,4-difluoro-2-(2-fluoro-4-iodophenylamino)-N-(2-hydroxy-ethoxy)-5-[(2-hydroxy-2-methyl-propoxyimino)-methyl]-benzamide]: in data set [1], the “Water solubility (LySA PH 6.5)” value turned out to be 15 µM. In addition, the half-life in data set [2] is more than 6 h. Moreover, the IC50 is less than 19.5 nM in data set [3] and 37 nM against MEK.
Regarding `CNC(=O)CCO/N=C/c1cc(C(=O)NOCCO)c(Nc2ccc(I)cc2F)c(F)c1F` [Compound 14, (E)-3,4-difluoro-2-(2-fluoro-4-iodo-phenylamino)-N-(2-hydroxy-ethoxy)-5-[(2-methylcarbamoyl-ethoxyimino)-methyl]-benzamide], in data set [1], the solubility at 2 h turned out to be 14 µM (≈ 8.12 µg/mL). In addition, the half-life in data set [2] amounted to 0.767 h. In addition, the IC50 was 38 nM in data set [3] and 9.7 nM against MEK.
The corresponding values for `O=C(NOCCO)c1cc(/C=N/OCCN2CCCCC2)c(F)c(F)c1Nc1ccc(I)cc1F` [Compound 17, (E)-3,4-difluoro-2-(2-fluoro-4-iodo-phenylamino)-N-(2-hydroxy-ethoxy)-5-[(2-piperidin-1-yl-ethoxyimino)-methyl]-benzamide] are 462 µM (≈ 280 µg/mL), more than 6 h, 920 nM and 287 nM.
In the case of `CNCCO/N=C/c1cc(C(=O)NOCCO)c(Nc2ccc(I)cc2F)c(F)c1F` [Compound 23, (E)-3,4-difluoro-2-(2-fluoro-4-iodo-phenylamino)-N-(2-hydroxy-ethoxy)-5-[(2-methylamino-ethoxyimino)-methyl]-benzamide], the IC50 was 88 nM in data set [3] and 85 nM at MEK.
On the same counts, the results for `O=C(NOCCO)c1cc(/C=N/OCc2cnc[nH]2)c(F)c(F)c1Nc1ccc(I)cc1F` [Compound 29, (E)-3,4-difluoro-2-(2-fluoro-4-iodo-phenylamino)-N-(2-hydroxy-ethoxy)-5-[(3H-imidazol-4-ylmethoxyimino)-methyl]-benzamide] are 165 nM and 576 nM.
On to `O=C(NOCCO)c1cc(/C=N/OCc2ccncc2)c(F)c(F)c1Nc1ccc(I)cc1F` [Compound 30, (E)-3,4-difluoro-2-(2-fluoro-4-iodo-phenylamino)-N-(2-hydroxy-ethoxy)-5-[(pyridin-4-ylmethoxyimino)-methyl]-benzamide], for which, in data set [1], the solubility at 2 h was less than 31.3 µM. In addition, in data set [2], the half-life is more than 6 h. For the same compound, the IC50 in data set [3] came to 790 nM; on MEK it was 88 nM.
Take `CO/N=C/c1cc(C(=O)NOCCO)c(Nc2ccc(I)cc2F)c(F)c1F` [Compound 31, (E)-3,4-difluoro-2-(2-fluoro-4-iodo-phenylamino)-N-(2-hydroxy-ethoxy)-5-[methoxyimino-methyl]-benzamide]: the figures for the IC50 (in data set [3]; on MEK) were 463 nM and 335 nM, respectively.
For `CC(C)O/N=C/c1cc(C(=O)NOCCO)c(Nc2ccc(I)cc2F)c(F)c1F` [Compound 32, (E)-3,4-difluoro-2-(2-fluoro-4-iodo-phenylamino)-N-(2-hydroxy-ethoxy)-5-[isopropoxyimino-methyl]-benzamide], the IC50 in data set [3] stood at 84 nM; against MEK, 1250 nM.
`CC(C)(O)CCO/N=C/c1cc(C(=O)NOCCO)c(Nc2ccc(I)cc2F)c(F)c1F` [Compound 33, (E)-3,4-difluoro-2-(2-fluoro-4-iodo-phenylamino)-N-(2-hydroxy-ethoxy)-5-[(3-hydroxy-3-methyl-butoxyimino)-methyl]-benzamide]: in data set [1], the solubility at 2 h is less than 7.8 µM. In addition, the figures for the IC50 (in data set [3]; against MEK) were 275 nM and 37.5 nM, respectively.
Regarding `CC(C)(CO)CO/N=C/c1cc(C(=O)NOCCO)c(Nc2ccc(I)cc2F)c(F)c1F` [Compound 34, (E)-3,4-difluoro-2-(2-fluoro-4-iodo-phenylamino)-5-[(E)-(3-hydroxy-2,2-dimethyl-propoxyimino)-methyl]-N-(2-hydroxy-ethoxy)-benzamide], the solubility at 2 h in data set [1] is less than 7.8 µM. For the same compound, the IC50 was 143 nM in data set [3] and 69 nM against MEK.
On the same counts, the results for `O=C(NOCCO)c1cc(/C=N/OCC2(CO)CC2)c(F)c(F)c1Nc1ccc(I)cc1F` [Compound 35, (E)-3,4-difluoro-2-(2-fluoro-4-iodo-phenylamino)-N-(2-hydroxy-ethoxy)-5-[(1-hydroxymethyl-cyclopropylmethoxyimino)-methyl]-benzamide] are less than 7.8 µM, 203 nM and 30.4 nM.
`O=C(NOCCO)c1cc(/C=N/OCCCCO)c(F)c(F)c1Nc1ccc(I)cc1F` [Compound 36, (E)-3,4-difluoro-2-(2-fluoro-4-iodo-phenylamino)-5-[(4-hydroxy-butoxyimino)-methyl]-N-(2-hydroxy-ethoxy)-benzamide]: the solubility at 2 h in data set [1] was less than 7.8 µM. Besides, the IC50 was determined as 365 nM in data set [3] and 45 nM at MEK.
Consider `COC(C)(C)CCO/N=C/c1cc(C(=O)NOCCO)c(Nc2ccc(I)cc2F)c(F)c1F` [Compound 37, (E)-3,4-difluoro-2-(2-fluoro-4-iodo-phenylamino)-N-(2-hydroxy-ethoxy)-5-[(3-methoxy-3-methyl-butoxyimino)-methyl]-benzamide], for which the IC50 in data set [3] came out at 600 nM; against MEK, 287 nM.
`COCCO/N=C/c1cc(C(=O)NOCCO)c(Nc2ccc(I)cc2F)c(F)c1F` [Compound 38, (E)-3,4-difluoro-2-(2-fluoro-4-iodo-phenylamino)-N-(2-hydroxy-ethoxy)-5-[(2-methoxy-ethoxyimino)-methyl]-benzamide]: the IC50 in data set [3] was determined as 476 nM; against MEK, 395 nM.
In the case of `CSCCO/N=C/c1cc(C(=O)NOCCO)c(Nc2ccc(I)cc2F)c(F)c1F` [Compound 39, (E)-3,4-difluoro-2-(2-fluoro-4-iodo-phenylamino)-N-(2-hydroxy-ethoxy)-5-[(2-methylsulfanyl-ethoxyimino)-methyl]-benzamide], the solubility at 2 h in data set [1] is less than 7.8 µM. For the same compound, the IC50 in data set [3] came to 114 nM; against MEK, 232 nM.
As to `CS(=O)(=O)CCO/N=C/c1cc(C(=O)NOCCO)c(Nc2ccc(I)cc2F)c(F)c1F` [Compound 40, (E)-3,4-difluoro-2-(2-fluoro-4-iodo-phenylamino)-N-(2-hydroxy-ethoxy)-5-[(2-methanesulfonyl-ethoxyimino)-methyl]-benzamide], the half-life in data set [2] was more than 6 h; in data set [4], 1.49 h. Moreover, the IC50 in data set [3] was 27 nM; at MEK, 67 nM.
Regarding `O=C(NOCCO)c1cc(/C=N/OCCOCCO)c(F)c(F)c1Nc1ccc(I)cc1F` [Compound 46, (E)-3,4-difluoro-2-(2-fluoro-4-iodo-phenylamino)-N-(2-hydroxy-ethoxy)-5-{[2-(2-hydroxy-ethoxy)-ethoxyimino]-methyl}-benzamide], the values for the IC50 (in data set [3]; against MEK) were 103 nM and 107 nM, respectively.
As for `CC(C)(O)CO/N=C\c1cc(C(=O)NOCCO)c(Nc2ccc(I)cc2F)c(F)c1F` [Compound 51, (Z)-3,4-Difluoro-2-(2-fluoro-4-iodo-phenylamino)-N-(2-hydroxy-ethoxy)-5-[(2-hydroxy-2-methyl-propoxyimino)-methyl]-benzamide], the solubility at 2 h in data set [1] was less than 7.8 µM. Besides, the IC50 stood at 6 nM in data set [3] and 21 nM on MEK.
The corresponding values for `CS(=O)(=O)CCO/N=C\c1cc(C(=O)NOCCO)c(Nc2ccc(I)cc2F)c(F)c1F` [Compound 53, (Z)-3,4-Difluoro-2-(2-fluoro-4-iodo-phenylamino)-N-(2-hydroxy-ethoxy)-5-[(2-methanesulfonyl-ethoxyimino)-methyl]-benzamide] are less than 7.8 µM, 1.9 nM and 17 nM.
The corresponding values for `O=C(NOCCO)c1cc(/C=N\OCCN2CCNC2=O)c(F)c(F)c1Nc1ccc(I)cc1F` [Compound 59, (Z)-3,4-difluoro-2-(2-fluoro-4-iodo-phenylamino)-N-(2-hydroxy-ethoxy)-5-{[2-(2-oxo-imidazolidin-1-yl)-ethoxyimino]-methyl}-benzamide] are 69 µM (≈ 41.9 µg/mL), 17 nM and 50 nM.
For the compound `O=C(NOCCO)c1cc(/C=N\OCCN2CCCC2=O)c(F)c(F)c1Nc1ccc(I)cc1F` [Compound 60, (Z)-3,4-difluoro-2-(2-fluoro-4-iodo-phenylamino)-N-(2-hydroxy-ethoxy)-5-{[2-(2-oxo-pyrrolidin-1-yl)-ethoxyimino]-methyl}-benzamide], the IC50 in data set [3] was 20 nM; against MEK, 78 nM.

In general, solubility refers to the concentration that dissolves in the medium under given conditions.

(Values after patent publication US8084645B2, “4-phenylamino-benzaldoxime derivatives and uses thereof as mitogen-activated protein kinase kinase (MEK) inhibitors” (Chugai Seiyaku Kabushiki Kaisha, priority 2003, dated 2011).)
